Patent US11801252B2, “Pharmaceutical composition” (Jiangsu Hengrui Medicine Co., Ltd., priority 2021, dated 2023)
Like-named read-outs stand apart in the source and are kept apart here.

Key:
[1] = Pharmacokinetics study in male cynomolgus monkeys (Test Example 1); assay type: in vivo; conditions: cynomolgus monkey, plasma, po, 300 mg/animal, after Formulation 2 (2 tablets, 300 mg/animal) PO, mean ± SD; for AUC(0-inf): n = 8, read-out: AUC(0-∞) of SNAC in plasma; for Cmax: n = 8, read-out: Cmax of SNAC in plasma; for half-life: n = 8, read-out: T1/2 of SNAC in plasma (converted); for Tmax: n = 8, read-out: Tmax of SNAC in plasma; for AUC(0-t): t = 24 h, n = 8, read-out: AUC(0-t) of SNAC in plasma
Experimental: Eight male cynomolgus monkeys were administered by single oral gavage, including 4 cycles, 5 days per cycle, 20 days in total (see Table 4 for the protocol).
The animals in cycle I and II were fasted before administration, while the animals in cycle III and IV were given high-fat food before administration. Animals in cycle I and III were given 300 mg of Formulation 2 (2 tablets of abiraterone acetate, T, comprising 300 mg of abiraterone), while animals in cycle II and IV were given 1000 mg of reference preparation (4 tablets of abiraterone acetate Zytiga®, R). Blood samples were collected before administration or at 0.25, 0.5, 1, 1.5, 2, 2.5, 3, 4, 8, 12 and 24 hours after administration. The validated LC-MS/MS method was used to determine the concentrations of abiraterone and SNAC in plasma samples. Only abiraterone was detected for those given reference preparation, while abiraterone and SNAC were both detected for those given test formulations. The main pharmacokinetic parameters were calculated according to the concentrations of abiraterone and SNAC in plasma using Phoenix WinNonlin® 7.0 software. The main pharmacokinetic data of abiraterone in plasma in cycles I-IV are shown in Table 5, and the main pharmacokinetic data of SNAC in plasma in cycles I and III are shown in Table 6.

[2] = In vivo food effects study in healthy subjects (Test Example 3); set-up: species or system human (healthy male subjects); conditions: after Test Formulation 300 mg single oral; for AUC—% Extrap of SNAC / CLz/F of SNAC / λz of SNAC: healthy male subjects, Mean ± SD; for AUC(0-t) / AUC(0-inf) / Cmax / MRT last / MRT inf / Vd/F / half-life / Tmax: male, human, plasma, po, 300 mg; for AUC(0-t): read-out: AUC0-t of SNAC; for AUC(0-inf): read-out: AUC0-∞ of SNAC; for Cmax: read-out: Cmax of SNAC; for MRT last: read-out: MRT0-t of SNAC; for MRT inf: read-out: MRT0-∞ of SNAC; for Vd/F: read-out: Vz/F of SNAC; for half-life: read-out: t1/2 of SNAC (converted); for Tmax: read-out: Tmax of SNAC
Description: To study the effect of food on the pharmacokinetic characteristics of abiraterone acetate tablets through a single oral administration of abiraterone acetate tablets under fasting state or after meal, or a single oral administration of abiraterone acetate tablets (Zytiga®) produced by Patheon Inc. under modified fasting state, in healthy subjects.
A single-center, randomized, open-label, three-period, self-controlled crossover trial design was applied. A total of 24 healthy male subjects were planned to be enrolled in the study. The washout period between each dose group was seven days. Blood samples were collected at a series of time points, and safety test was performed. The HPLC-MS/MS method was used to determine the plasma concentration of abiraterone and SNAC at different time points after drug administration. The non-compartmental model was used to calculate the pharmacokinetic parameters, and statistical analysis was performed.
The subjects were orally administered a single dose of the test formulation (T) under fasting state at a dose of 300 mg (150 mg×2 tablets), a single dose of the test formulation (T) of 300 mg abiraterone acetate tablets (I) (150 mg×2 tablets) after a high-fat meal (the total calories were approximately 800˜1,000 kcal, wherein approximately 50% of the calories were derived from fat; the test meal of each test cycle for the postprandial administration should be consistent; a high-fat meal was given 30 minutes before drug administration and should be finished within 30 minutes), or a single dose of the reference preparation of 1,000 mg abiraterone acetate tablets (Zytiga®) (250 mg×4 tablets) under modified fasting state (a medium-fat meal was given two hours before drug administration and one hour after drug administration; the total calories were approximately 450 kcal wherein 30% of the calories were derived from fat; the meal should be finished within 30 minutes), with 240 mL of warm water, in the morning on the day of drug administration for each cycle. Liquid was prohibited before administration and one hour after drug administration, and a standard lunch and dinner (a standardized light diet) were given approximately 4 and 10 hours after drug administration. The drug was swallowed whole instead of being sucked or chewed.
Test Formulation (T): Abiraterone acetate tablets (Formulation 5), specification: 150 mg;
Reference Preparation (R): Abiraterone Acetate Tablets; produced by Patheon Inc.; trade name: Zytiga®; specification: 250 mg.
The PKPS was used for the statistical analysis of pharmacokinetic parameters.
(§1) With the dosing order, dosing cycle and dosing regimen as fixed effects, the subjects were included as random effects in the linear mixed model as random effects. The least-squares mean ratio of Cmax, AUC0-t and AUC0-∞ of abiraterone in plasma after oral administration of the test formulation T under a high-fat meal or fasting states, and its 90% confidence interval were calculated.
as §1, with “dosing orders,” for “dosing order,”, “mixed model.” for “mixed model as random effects.”, “meal and oral administration of the reference formulation R under modified” for “meal or”

[3] = stated without source; cited from earlier work
[4] = In vivo pharmacokinetics study in healthy subjects, 75-450 mg single dose, fasting (Test Example 2); set-up: species or system human (healthy male subjects); conditions: single oral, healthy male subjects
[5] = after a high-fat meal, N = 24, Mean ± SD
[6] = fasting state, N = 23, Mean ± SD

O=C([O-])CCCCCCCNC(=O)c1ccccc1O.[Na+] [SNAC, sodium 8-(salicylamido)caprylate]
AUC(0-inf) ([1]; fasting): 40900 ± 10600 ng·h/mL | Cmax ([1]; fasting): 34200 ± 18000 ng/mL | half-life ([1]; fasting): 3.16 ± 0.93 h | Tmax ([1]; fasting): 0.72 ± 0.49 h | AUC(0-inf) ([1]; high fat diet): 18700 ± 5620 ng·h/mL | Cmax ([1]; high fat diet): 4660 ± 2400 ng/mL | half-life ([1]; high fat diet): 2.71 ± 0.74 h | Tmax ([1]; high fat diet): 2.88 ± 0.74 h | AUC(0-t) ([1]; fasting): 40300 ± 10400 ng·h/mL | AUC(0-t) ([1]; high fat diet): 18400 ± 5740 ng·h/mL | AUC—% Extrap of SNAC ([2]; after a high-fat meal, N = 24): 0.46 ± 0.63% | CLz/F of SNAC ([2]; after a high-fat meal, N = 24): 198.03 ± 28.78 mL/h | λz of SNAC ([2]; after a high-fat meal, N = 24): 0.27 ± 0.12 h⁻¹ | AUC—% Extrap of SNAC ([2]; fasting state, N = 23): 0.66 ± 0.54% | CLz/F of SNAC ([2]; fasting state, N = 23): 255.02 ± 72.16 mL/h | λz of SNAC ([2]; fasting state, N = 23): 0.19 ± 0.08 h⁻¹ | AUC(0-t) [2, 5]: 1540 ± 247 ng·h/mL | AUC(0-inf) [2, 5]: 1550 ± 245 ng·h/mL | Cmax [2, 5]: 1120 ± 574 ng/mL | MRT last [2, 5]: 2.28 ± 0.99 h | MRT inf [2, 5]: 2.36 ± 1 h | Vd/F [2, 5]: 0.87 ± 0.362 L | half-life [2, 5]: 3.06 ± 1.19 h | Tmax ([2]; after a high-fat meal, N = 24, median): 1.13 h | AUC(0-t) [2, 6]: 1250 ± 305 ng·h/mL | AUC(0-inf) [2, 6]: 1250 ± 306 ng·h/mL | Cmax [2, 6]: 1580 ± 697 ng/mL | MRT last [2, 6]: 1.59 ± 1.35 h | MRT inf [2, 6]: 1.74 ± 1.38 h | Vd/F [2, 6]: 1.62 ± 0.949 L | half-life [2, 6]: 4.22 ± 1.71 h | Tmax ([2]; fasting state, N = 23, median): 0.5 h | PKA [3]: 5.0 | AUC—% Extrap of SNAC ([4]; after Formulation 5, dose group A 75 mg (equal SNAC content), N = 16, Mean ± SD): 1.23 ± 1.12% | Tmax ([4]; human, plasma, after Formulation 5, dose group A 75 mg (equal SNAC content), N = 16, median): 0.38 h | AUC(0-t) ([4]; human, plasma, after Formulation 5, dose group C 300 mg (equal SNAC content), N = 15, Mean ± SD, read-out: AUC0-t of SNAC): 1400 ng·h/mL
